Source: ChEMBL document CHEMBL5357074, “Cannabidiol-Based Prodrugs: Synthesis and Bioevaluation” (ACS Med Chem Lett, 2024)
≈ marks a conversion by molar mass, not a printed value. Calls of active or inactive are those of the source. The calls are words filed in the database; no cut-off is given here.

Legend:
[1] = Chemical stability in water at 2 mg/ml incubated for 2 hrs by HPLC analysis; type: physicochemical; conditions: read-out: Stability
[2] = Chemical stability in SIF at 2 mg/ml incubated for 2 hrs by HPLC analysis; type: physicochemical; conditions: read-out: Stability
[3] = Stability in Balb/C mouse plasma assessed as compound degradation at 10 uM incubated for 2 hrs by LC-MS/MS analysis; type: ADME, cell-free; conditions: read-out: Drug degradation
[4] = Prodrug conversion in human plasma assessed as drug release measured after 24 hrs by HPLC analysis; type: ADME, cell-free
[5] = Thermodynamic equilibrium solubility in water at 1 to 1200 ug incubated for 4 hrs by absorbance based assay; type: physicochemical; conditions: dose 1-1200 µg, read-out: Therm_solubility
[6] = Thermodynamic equilibrium solubility SGF at 1 to 1200 ug incubated for 4 hrs by absorbance based assay; type: physicochemical; conditions: dose 1-1200 µg, read-out: Therm_solubility
[7] = tested on: Mus musculus; assay: Antiepileptic activity in MES Swiss Albino mouse model assessed as decrease in convulsion duration at 75 mg/kg, po equivalent to Cannabidiol pretreated for 30 mins followed by induction of epileptic seizures measured for 1 to 8 hrs; type: functional, organism-based; conditions: time 1.5-8.5 hrs
[8] = Prodrug conversion in human plasma assessed as formation of O-(2-morpholinoacetyl)cannabidiol metabolite measured for 1 hr by HPLC analysis; type: ADME, cell-free
[9] = Volume of distribution in fasted Swiss mouse at 75 mg/kg, po equivalent to Cannabidiol measured for 24 hrs by LCMS/MS analysis; type: ADME, organism-based; conditions: in vivo
[10] = Volume of distribution at steady state in fasted Wistar rat at 75 mg/kg, po equivalent to Cannabidiol measured for 24 hrs by LCMS/MS analysis; type: ADME, organism-based; conditions: in vivo
[11] = Thermodynamic equilibrium solubility SIF at 1 to 1200 ug incubated for 4 hrs by absorbance based assay; type: physicochemical; conditions: dose 1-1200 µg, read-out: Therm_solubility
[12] = Prodrug conversion in human plasma assessed as formation of O-{2-(4-cyclopropylpiperazin-1-yl)acetyl}cannabidiol metabolite measured for 1 to 8 hrs by HPLC analysis; type: ADME, cell-free; conditions: time 1-8 hrs
[13] = Volume of distribution in fasted Swiss mouse at 75 mg/kg, po measured for 24 hrs by LCMS/MS analysis; type: ADME, organism-based; conditions: in vivo
[14] = Oral bioavailability in Swiss mouse at 5 mg/kg measured for 24 hrs by LCMS/MS analysis; type: ADME, organism-based; conditions: in vivo
[15] = Cmax in fasted Wistar rat at 75 mg/kg, po measured for 24 hrs by LCMS/MS analysis; type: ADME, organism-based; design: time 24 hrs, dose 75 mg/kg, route po; conditions: in vivo
[16] = Volume of distribution at steady state in fasted Wistar rat at 75 mg/kg, po measured for 24 hrs by LCMS/MS analysis; type: ADME, organism-based; conditions: in vivo
[17] = Clearance in fasted Swiss mouse at 75 mg/kg, po measured for 24 hrs by LCMS/MS analysis; type: ADME, organism-based; conditions: in vivo
[18] = AUC (0 to infinity) in fasted Wistar rat at 75 mg/kg, po measured for 24 hrs by LCMS/MS analysis; type: ADME, organism-based; design: time 24 hrs, dose 75 mg/kg, route po; conditions: in vivo
[19] = Cmax in fasted Swiss mouse at 75 mg/kg, po measured for 24 hrs by LCMS/MS analysis; type: ADME, organism-based; design: dose 75 mg/kg, time 24 hrs, route po; conditions: in vivo
[20] = Chemical stability in SGF at 2 mg/ml incubated for 2 hrs by HPLC analysis; type: physicochemical; conditions: read-out: Stability
[21] = AUC (0 to t) in fasted Swiss mouse at 75 mg/kg, po measured for 24 hrs by LCMS/MS analysis; type: ADME, organism-based; design: time 24 hrs, dose 75 mg/kg, route po; conditions: in vivo
[22] = AUC (0 to infinity) in fasted Swiss mouse at 75 mg/kg, po measured for 24 hrs by LCMS/MS analysis; type: ADME, organism-based; design: dose 75 mg/kg, time 24 hrs, route po; conditions: in vivo
[23] = Clearance in fasted Wistar rat at 75 mg/kg, po measured for 24 hrs by LCMS/MS analysis; type: ADME, organism-based; conditions: in vivo
[24] = in vivo; conditions: Swiss, mouse, po, 75 mg/kg
Description: Tmax in fasted Swiss mouse at 75 mg/kg, po measured for 24 hrs by LCMS/MS analysis

[25] = AUC (0 to t) in fasted Wistar rat at 75 mg/kg, po measured for 24 hrs by LCMS/MS analysis; type: ADME, organism-based; design: dose 75 mg/kg, time 24 hrs, route po; conditions: in vivo
[26] = in vivo; conditions: Wistar, rat, po, 75 mg/kg
Description: Tmax in fasted Wistar rat at 75 mg/kg, po measured for 24 hrs by LCMS/MS analysis

With `O=C(O)CN1CCOCC1` the remaining at 2 h, 2 mg/ml [1] was no less than 74% and the remaining at 2 h, 2 mg/ml [2] was no less than 74%.

For `CCOC(=O)[C@H](CCc1ccccc1)N[C@@H](C)C(=O)N1CCC[C@H]1C(=O)O` [ENALAPRIL], the metabolised at 2 h, 10 µM [3] was greater than 80%.

With `C=C(C)[C@@H]1CCC(C)=C[C@H]1c1c(O)cc(CCCCC)cc1OC(=O)CN1CCN(C(C)C)CC1` the Drug metabolism [4] was 78%.

Compound `C=C(C)[C@@H]1CCC(C)=C[C@H]1c1c(O)cc(CCCCC)cc1OC(=O)CN1CCN(C2CC2)CC1` has a Drug metabolism [4] of 56%.

With `C=C(C)[C@@H]1CCC(C)=C[C@H]1c1c(OC(=O)CN2CCOCC2)cc(CCCCC)cc1OC(=O)CN1CCOCC1` the solubility thermodynamic at 4 h [5] was 120 µg/mL (≈ 211 µM), the solubility thermodynamic at 4 h [6] was 4000 µg/mL (≈ 7030 µM) and the Activity [7] was “Active”. For the same compound, the Drug metabolism [8] was “Metabolite_Detected”, the Vd [9] was 224 L/kg and the Drug metabolism [4] was 52%. The Vdss [10] was 93 L/kg and the solubility thermodynamic at 4 h [11] was 120 µg/mL (≈ 211 µM).

`C=C(C)[C@@H]1CCC(C)=C[C@H]1c1c(O)cc(CCCCC)cc1OC(=O)CN1CCC(O)CC1` showed a Drug metabolism [4] of 73%.

In the case of `C=C(C)[C@@H]1CCC(C)=C[C@H]1c1c(O)cc(CCCCC)cc1OC(=O)CN1CCCC1`, the Drug metabolism [4] is reported as 74%.

With `O=C(/C=C/C=C/c1ccc2c(c1)OCO2)N1CCCCC1` [PIPERINE] the solubility thermodynamic at 4 h [5] was 40 µg/mL (≈ 140 µM), the solubility thermodynamic at 4 h [6] was 40 µg/mL (≈ 140 µM) and the solubility thermodynamic at 4 h [11] was 60 µg/mL (≈ 210 µM).

For `C=C(C)[C@@H]1CCC(C)=C[C@H]1c1c(OC(=O)CN2CCN(C3CC3)CC2)cc(CCCCC)cc1OC(=O)CN1CCN(C2CC2)CC1`, the Drug metabolism [12] was “Metabolite_Detected” and the Drug metabolism [4] was 27%.

For `C=C(C)[C@@H]1CCC(C)=C[C@H]1c1c(O)cc(CCCCC)cc1OC(=O)CN1CCN(C)CC1`, the Drug metabolism [4] was 59%.

For `C=C(C)[C@@H]1CCC(C)=C[C@H]1c1c(O)cc(CCCCC)cc1OC(=O)CN1CCN(c2ccccc2)CC1`, the Drug metabolism [4] was 9.2%.

`C=C(C)[C@@H]1CCC(C)=C[C@H]1c1c(O)cc(CCCCC)cc1OC(=O)CN1CCOCC1` showed a solubility thermodynamic at 4 h [5] of 40 µg/mL (≈ 90.6 µM), a solubility thermodynamic at 4 h [6] of 400 µg/mL (≈ 906 µM) and a Vd [9] of 108 L/kg. It also gave a Drug metabolism [4] of 84%, a Vdss [10] of 32 L/kg and a solubility thermodynamic at 4 h [11] of 80 µg/mL (≈ 181 µM).

`C=C(C)[C@@H]1CCC(C)=C[C@H]1c1c(O)cc(CCCCC)cc1OC(=O)CN1CCC(c2ccccc2)CC1` gave a Drug metabolism [4] of 4.6%.

In the case of `C=C(C)[C@@H]1CCC(C)=C[C@H]1c1c(O)cc(CCCCC)cc1O` [CANNABIDIOL], the Vd [13] is reported as 137 L/kg, the remaining at 2 h, 2 mg/ml [1] is reported as no less than 74% and the bioavailability [14] is reported as 24%. For the same compound, the Cmax [15] was 728 ng/mL, the Vdss [16] was 77 L/kg and the CL/F [17] was 250 mL/min/kg. The AUC(0-inf) [18] was 10200 ng·h/mL, the Cmax [19] was 669 ng/mL and the solubility thermodynamic at 4 h [5] was less than 5 µg/mL. The remaining at 2 h, 2 mg/ml [20] was no less than 74%, the AUC(0-t) at 24 h [21] was 4660 ng·h/mL and the solubility thermodynamic at 4 h [6] was less than 5 µg/mL. The remaining at 2 h, 2 mg/ml [2] was no less than 74%, the AUC(0-inf) [22] was 4870 ng·h/mL and the CL/F [23] was 123 mL/min/kg. The Tmax at 24 h [24] was 2 h, the AUC(0-t) at 24 h [25] was 9460 ng·h/mL and the solubility thermodynamic at 4 h [11] was less than 5 µg/mL. It also gave a Tmax at 24 h [26] of 8 h.
